Data taken from patent US20060287383A1, “Substance exhibiting antidepressant property” (priority 2003, published 2006).

Columns and labels:
white outbred male rats = assay: involuntary swimming in a reservoir with freely moving wheels according to Nomura; format: in vivo
Procedure: The method of involuntary swimming in a reservoir with freely moving wheels (Nomura S., Shimizu J., Kinjo M. et al. A new behavioral test for antidepressant drugs//Eur. J. Pharmacol.—1982.—v. 83.—N 34.—p. 171-175) is widely used for assessing the action of antidepressant agents. The installation is a reservoir having dimensions of 64×30×42 cm and divided into four equal sections where wheels are located. The reservoir is filled with water at the temperature of 25° C., coming to the medium line of the wheels. The studies have been conducted with white outbred male rats having the weight from 230 to 250 grams. The rats have been put into each section in the position where their heads are opposite to the wheels, and then the wheel speed has been recorded for 10 minutes with the use of electromechanical counters. The number of wheel revolutions made by the rat for 10 minutes is recorded.
This study has been conducted with animals from different groups. The rats from the experimental groups have received single doses of phenotropyl in the amounts of 25, 50 and 100 mg/kg or the standard amitriptyline medication in the amount of 10 mg/kg (ampoule solution made by Spofa, the Czech Republic) in the volume corresponding to the dosage. The animals from the control group have received distilled water in the same dosage. All the substances have been given intragastrically 40 minutes before the an experiment.

white outbred male mice = assay: haloperidol catalepsy method; format: in vivo
Procedure: As one of the indicators for antidepressant antagonism in relation to depriming effects of neuroleptics, neuroleptic-induced catalepsy is used. The maintenance of catalepsy in animals is assessed by their ability to maintain set or unusual poses for a definite time (Morpurgo C. Effects of antiparkinson drugs on phenothiazine induced catatonia reaction//Arch. Int Pharmacodyn., 1962, vol. 137 No 1-2, p. 84-94). Reduction or prevention of catalepsy is one of the factors showing antidepressant activity in studied substances.
The studies have been conducted with white outbred male mice having the weight from 18 to 24 grams. Haloperidol is introduced intraperitoneally in a single dose of 0.5 mg/kg. Phenotropyl has been introduced intraperitoneally in doses of 50, 100 and 200 mg/kg in 15 minutes after the introduction of haloperidol. The catalepsy intensity has been assessed by time (in seconds) of keeping the animals in an uncomfortable pose where their front legs have been put onto a bar having the height of 4 cm, in 60, 120 and 180 minutes after introducing the said medications. It is shown in Table 4 that phenotropyl clearly antagonizes haloperidol-induced catalepsy.

[1] = test system: patients having depressive illnesses; assay: clinical study, Hamilton rating scale for depressive illness; format: in vivo, human
Procedure: The Hamilton rating scale for primary depressive illness (Hamilton M. Development of a rating scale for primary depressive illness//Br J Soc Clin Psychol. 1967 December;6(4):278-96) is one of the most widely used scales for assessing depression in the clinical practice.
The material for clinical studies has comprised two homogenous groups of patients having depressive illnesses (40 persons) aged 20-42, out of which 20 patients have taken amitriptyline in the daily dose of 75 mg (25 mg three times a day), and 20 patients have taken phenotropyl in the daily dose of 100 mg as a single dose in the morning time. For a comparative study of the medications antidepressant activity the patients have been enlisted for the study according to the following criteria: the informed consent is available, a light or moderate depressive episode (F32.0 ? F32.1 according to MCB-10) is present, the total score under the Hamilton rating scale is not lower than 18, no contraindications to taking amitriptyline and phenotropyl. The patients have been relatively uniformly assigned to the said groups according to meaningful factors, such as sex and age, time for which the condition exists and syndrome characteristics. The condition existence time varied from 1 to 2 years. The therapy efficiency has been assessed on the basis of a degree of reduction of the total score under the Hamilton scale, namely: full effect—reduction by more than 50%; partial reduction—from 25 to 50%; no effect—reduction by less than 25%. The condition of the patients has been assessed during the background studies and at each 7th day of the therapy for the whole 6 weeks of the therapy. In total, seven examinations have been carried out. The comparative data on the general efficiency pf the medications, as given in Table 5, evidence a rather quick reduction of the depressive illness psychopathological symptoms in the process of administering phenotropyl and amitriptyline. However, the antidepressant effect of phenotropyl has been more pronounced on the 7th and 14th days of the therapy. The full reduction has been attained in 25% and 40% of the patients, respectively. […] From the 28th day of the therapy the number of the patients experiencing the maximum effect has not been changed either on the 35th or the 42nd days of the therapy. Out of 20% of the patients experiencing a partial reduction of the depressive symptoms, 15% have been patients with the reduction from 25% to 50%, and 5%—patients with the reduction by less than 25%.

With `NC(=O)CN1CC(c2ccccc2)CC1=O` (stereo not shown) [Phenotropyl, N-carbamoyl-methyl-4-phenyl-2-pyrrolidone] the “Number of wheel revolutions for 10 minutes” value (“Number of wheel revolutions” below) (white outbred male rats; single dose 25 mg/kg intragastrically 40 minutes before) was 89.3 ± 17.2, the “Number of wheel revolutions” value (white outbred male rats; single dose 50 mg/kg intragastrically 40 minutes before) was 102.7 ± 16.1 and the “Number of wheel revolutions” value (white outbred male rats; single dose 100 mg/kg intragastrically 40 minutes before, 100 mg/kg) was 121.8 ± 23.7. For the same molecule, the “Number of wheel revolutions” value (white outbred male rats; single dose 100 mg/kg intragastrically 40 minutes before, listed as phenotropyl, 100 mg/kg) was 121.8±23.7, the “Catalepsy” value (white outbred male mice; haloperidol 0.5 mg/kg + phenotropyl 50 mg/kg intraperitoneally, 60 minutes) was 0.0 ± 0.0 s and the “Catalepsy” value (white outbred male mice; haloperidol 0.5 mg/kg + phenotropyl 50 mg/kg intraperitoneally, 120 minutes) was 8.2 ± 3.2 s. For the same molecule, the “Catalepsy” value (white outbred male mice; haloperidol 0.5 mg/kg + phenotropyl 50 mg/kg intraperitoneally, 180 minutes) was 4.5 ± 2.5 s, the “Catalepsy” value (white outbred male mice; haloperidol 0.5 mg/kg + phenotropyl 100 mg/kg intraperitoneally, 60 minutes) was 0.0 ± 0.0 s and the “Catalepsy” value (white outbred male mice; haloperidol 0.5 mg/kg + phenotropyl 100 mg/kg intraperitoneally, 120 minutes) was 2.0 ± 1.0 s. The “Catalepsy” value (white outbred male mice; haloperidol 0.5 mg/kg + phenotropyl 100 mg/kg intraperitoneally, 180 minutes) was 0.0 ± 0.0 s, the “Catalepsy” value (white outbred male mice; haloperidol 0.5 mg/kg + phenotropyl 200 mg/kg intraperitoneally, 60 minutes) was 0.0 ± 0.0 s and the “Catalepsy” value (white outbred male mice; haloperidol 0.5 mg/kg + phenotropyl 200 mg/kg intraperitoneally, 120 minutes) was 11.8 ± 2.1 s. For the same molecule, the “Catalepsy” value (white outbred male mice; haloperidol 0.5 mg/kg + phenotropyl 200 mg/kg intraperitoneally, 180 minutes) was 0.0 ± 0.0 s, the “reduction of catalepsy development level” value (white outbred male mice; phenotropyl 50 mg/kg, 120 minutes) was 3.2 times and the “reduction of catalepsy development level” value (white outbred male mice; phenotropyl 50 mg/kg, 180 minutes) was 13.2 times. The “reduction of catalepsy development level” value (white outbred male mice; phenotropyl 100 mg/kg, 120 minutes) was 14 times, the “development of catalepsy” value (white outbred male mice; phenotropyl dose of 100 or 200 mg/kg, 180 minutes) was “fully stopping its development” and the “development of catalepsy” value (white outbred male mice; phenotropyl doses of 50 and 100 mg/kg, 60 minutes) was “fully prevents the development of catalepsy”. The “sedative and cholinergic effects” value ([1]; 100 mg daily, 6 weeks of therapy) was “no cases of sedative and cholinergic effects have been recorded”, the “time at which full reduction is attained in 70% and 80% of the patients, compared with amitriptyline” value ([1]; 100 mg daily, 21st and 28th days of the therapy) was “two weeks earlier than for the amitriptyline therapy” and the “patients (%) with reduction of total Hamilton score 25-49” value ([1]; 7th therapy day, 100 mg daily) was 25%. For the same molecule, the “patients (%) with reduction of total Hamilton score <25” value ([1]; 7th therapy day, 100 mg daily) was 75%, the “patients (%) with reduction of total Hamilton score ≧50” value ([1]; 7th therapy day, 100 mg daily) was 0% and the “patients (n) with reduction of total Hamilton score 25-49” value ([1]; 7th therapy day, 100 mg daily) was 5. The “patients (n) with reduction of total Hamilton score <25” value ([1]; 7th therapy day, 100 mg daily) was 15, the “patients (n) with reduction of total Hamilton score ≧50” value ([1]; 7th therapy day, 100 mg daily) was 0 and the “patients (%) with reduction of total Hamilton score ≧50” value ([1]; 7th therapy day, 100 mg daily, listed as phenotropyl) was 25%. For the same molecule, the “patients (%) with reduction of total Hamilton score 25-49” value ([1]; 14th therapy day, 100 mg daily) was 30%, the “patients (%) with reduction of total Hamilton score <25” value ([1]; 14th therapy day, 100 mg daily) was 30% and the “patients (%) with reduction of total Hamilton score ≧50” value ([1]; 14th therapy day, 100 mg daily) was 40%. For the same molecule, the “patients (n) with reduction of total Hamilton score 25-49” value ([1]; 14th therapy day, 100 mg daily) was 6, the “patients (n) with reduction of total Hamilton score <25” value ([1]; 14th therapy day, 100 mg daily) was 6 and the “patients (n) with reduction of total Hamilton score ≧50” value ([1]; 14th therapy day, 100 mg daily) was 8. For the same molecule, the “patients (%) with reduction of total Hamilton score 25-49” value ([1]; 21st therapy day, 100 mg daily) was 10%, the “patients (%) with reduction of total Hamilton score <25” value ([1]; 21st therapy day, 100 mg daily) was 20% and the “patients (%) with reduction of total Hamilton score ≧50” value ([1]; 21st therapy day, 100 mg daily) was 70%. The “patients (n) with reduction of total Hamilton score 25-49” value ([1]; 21st therapy day, 100 mg daily) was 2, the “patients (n) with reduction of total Hamilton score <25” value ([1]; 21st therapy day, 100 mg daily) was 4 and the “patients (n) with reduction of total Hamilton score ≧50” value ([1]; 21st therapy day, 100 mg daily) was 14. For the same molecule, the “patients (%) with reduction of total Hamilton score 25-49” value ([1]; 28th therapy day, 100 mg daily) was 15%, the “patients (%) with reduction of total Hamilton score <25” value ([1]; 28th therapy day, 100 mg daily) was 5% and the “patients (%) with reduction of total Hamilton score ≧50” value ([1]; 28th therapy day, 100 mg daily) was 80%. The “patients (n) with reduction of total Hamilton score 25-49” value ([1]; 28th therapy day, 100 mg daily) was 3, the “patients (n) with reduction of total Hamilton score <25” value ([1]; 28th therapy day, 100 mg daily) was 1 and the “patients (n) with reduction of total Hamilton score ≧50” value ([1]; 28th therapy day, 100 mg daily) was 16. For the same molecule, the “patients (%) with reduction of total Hamilton score 25-49” value ([1]; 35th therapy day, 100 mg daily) was 15%, the “patients (%) with reduction of total Hamilton score <25” value ([1]; 35th therapy day, 100 mg daily) was 5% and the “patients (%) with reduction of total Hamilton score ≧50” value ([1]; 35th therapy day, 100 mg daily) was 80%. For the same molecule, the “patients (n) with reduction of total Hamilton score 25-49” value ([1]; 35th therapy day, 100 mg daily) was 3, the “patients (n) with reduction of total Hamilton score <25” value ([1]; 35th therapy day, 100 mg daily) was 1 and the “patients (n) with reduction of total Hamilton score ≧50” value ([1]; 35th therapy day, 100 mg daily) was 16. For the same molecule, the “patients (%) with reduction of total Hamilton score 25-49” value ([1]; 42nd therapy day, 100 mg daily) was 15%, the “patients (%) with reduction of total Hamilton score <25” value ([1]; 42nd therapy day, 100 mg daily) was 5% and the “patients (%) with reduction of total Hamilton score ≧50” value ([1]; 42nd therapy day, 100 mg daily) was 80%. For the same molecule, the “patients (n) with reduction of total Hamilton score 25-49” value ([1]; 42nd therapy day, 100 mg daily) was 3, the “patients (n) with reduction of total Hamilton score <25” value ([1]; 42nd therapy day, 100 mg daily) was 1 and the “patients (n) with reduction of total Hamilton score ≧50” value ([1]; 42nd therapy day, 100 mg daily) was 16. For the same molecule, the “tolerance and withdrawal syndrome” value ([1]; course administration) was “does not induce tolerance and the withdrawal syndrome”.
